In ChEMBL document CHEMBL1129208, “Synthesis and activity of 2,6,9-trisubstituted purines” (Bioorg Med Chem Lett, 1997):
Values joined by “and” are separate entries in the source; they are usually repeats but may differ in a detail not shown here. Equal entries are not always repeated.

The molecules below were run against Cyclin-dependent kinase 2/cyclin E (Homo sapiens, UniProt P24941) (assay: Inhibitory concentration against cyclin dependent kinase-2 (CDK2)/Cyclin E).
Assay type: protein-complex assay
CN(Cc1ccc(C(=O)O)cc1)c1[nH]c(Cl)nc2ncnc1-2 gave an IC50 greater than 5000 nM.
With COc1ccc(CNc2nc(C3CC[C@@H](Cc4ccccc4N)N3)nc3c2ncn3C(C)C)cc1 (some centres not stated) the IC50 was greater than 5000 nM.
Molecule CC(C)n1cnc2c(Nc3ccc(Br)cc3)nc(N(CCO)CCO)nc21 has an IC50 of 1000 nM.
COc1ccc(CNc2nc(NCC(O)CO)nc3c2ncn3C(C)C)cc1 (configuration not stated) was tested, and the IC50 was 2000 nM.
With Cn1cnc2c(NCCc3ccccc3)nc(Cl)nc21 the IC50 was greater than 5000 nM.
CN(c1ccncc1)c1nc(Cl)nc2c1ncn2C1CCCC1 was tested, and the IC50 was greater than 5000 nM.
Molecule CC(C)n1cnc2c(N(C)Cc3ccc(-c4ccccc4)cc3)nc(Cl)nc21 has an IC50 greater than 5000 nM.
For COc1ccc(CNc2nc(N(CCO)CCO)nc3c2ncn3CC(C)C)cc1, the IC50 was 2000 nM.
For COc1ccc(CNc2nc(N(CCO)CCO)nc3c2ncn3Cc2cccc([N+](=O)[O-])c2)cc1, the IC50 was 2000 nM.
In the case of CC(C)n1cnc2c(N(C)C3CC3)nc(N(CCO)CCO)nc21, the IC50 is reported as 2000 nM.
In the case of COc1ccc(CNc2nc(N3CCC(O)C3)nc3c2ncn3C(C)C)cc1 (configuration not stated), the IC50 is reported as greater than 5000 nM.
For CC(C)n1cnc2c(NCc3ccc4c(c3)OCO4)nc(N(CCO)CCO)nc21, the IC50 was 800 nM.
COc1ccc(CNc2nc(Cl)nc3c2ncn3C)cc1 was tested, and the IC50 was 4000 nM and 700 nM.
For COc1ccc(CNc2nc(N(CCO)CCO)nc3c2ncn3Cc2ccc3ccccc3c2)cc1, the IC50 was 5000 nM.
Molecule CC(C)(C)OC(=O)Cn1cnc2c(NCc3ccc(-c4ccccc4)cc3)nc(N(CCO)CCO)nc21 has an IC50 of 5000 nM.
In the case of CC(C)n1cnc2c(NCc3ccc(-c4ccccc4)cc3)nc(NCc3ccco3)nc21, the IC50 is reported as greater than 5000 nM.
For CCCCCCCC/C=C\CCCCCCCCn1cnc2c(NCc3ccc(OC)cc3)nc(N(CCO)CCO)nc21, the IC50 was 3000 nM.
Molecule COc1ccc(CNc2nc(N(CCO)CCO)nc3c2ncn3Cc2ccccc2-c2ccccc2)cc1 has an IC50 greater than 5000 nM.
In the case of COCCN(CCOC)c1nc(NCc2ccc(-c3ccccc3)cc2)c2ncn(C(C)C)c2n1, the IC50 is reported as 5000 nM.
Molecule COc1ccc(CNc2nc(N(CCO)CCO)nc3c2ncn3CCO)cc1 has an IC50 of 1000 nM.
In the case of CC(C)n1cnc2c(Nc3cccc4cccnc34)nc(N(CCO)CCO)nc21, the IC50 is reported as greater than 5000 nM.
COc1ccc(CNc2nc(N(CCO)CCO)nc3c2ncn3CC(O)CO)cc1 (configuration not stated) gave an IC50 greater than 5000 nM.
In the case of COCCCNc1nc(Cl)nc2c1ncn2C, the IC50 is reported as greater than 5000 nM.
In the case of FC(F)(F)n1cnc2c(NCc3ccc(Cl)cc3)nc(Cl)nc21, the IC50 is reported as 1000 nM.
In the case of COc1ccc(CNc2nc(NCCN)nc3c2ncn3C(C)C)cc1, the IC50 is reported as greater than 5000 nM.
For Cn1cnc2c(NC3CCN(Cc4ccccc4)CC3)nc(Cl)nc21, the IC50 was greater than 5000 nM.
For O=C1c2ccccc2C(=O)N1CCNc1nc(Cl)nc2nc[nH]c12, the IC50 was greater than 5000 nM.
CC(C)n1cnc2c(NCc3ccc(C4=CC(=S)CC=C4)cc3)nc(N(CCO)CCO)nc21 was tested, and the IC50 was greater than 5000 nM.
In the case of COc1ccc(CNc2nc(N(CCO)Cc3ccccc3)nc3c2ncn3C(C)C)cc1, the IC50 is reported as 1000 nM.
COc1ccc(CNc2nc(N3CCCC3)nc3c2ncn3C(C)C)cc1 gave an IC50 of 5000 nM.
Molecule CC(C)Cn1cnc2c(N(C)c3cccnc3)nc(Cl)nc21 has an IC50 greater than 5000 nM.
CC(C)n1cnc2c(NC3Cc4ccccc4C3)nc(N(CCO)CCO)nc21 showed an IC50 greater than 5000 nM.
Molecule COc1ccc(CNc2nc(N3CCC(O)CC3)nc3c2ncn3C(C)C)cc1 has an IC50 of 2000 nM.
COc1ccc(CNc2nc(N(C)CC(O)c3ccccc3)nc3c2ncn3C(C)C)cc1 (configuration not stated) showed an IC50 greater than 5000 nM.
COc1ccc(CNc2nc(NCCO)nc3c2ncn3C(C)C)cc1 gave an IC50 of 1500 nM.
N#CCCCNc1nc(Cl)nc2nc[nH]c12 showed an IC50 greater than 5000 nM.
Molecule CCn1cnc2c(NCCc3ccccc3)nc(Cl)nc21 has an IC50 greater than 5000 nM.
Molecule CCC(C)Cn1cnc2c(NCc3ccc(OC)cc3)nc(N(CCO)CCO)nc21 (configuration not stated) has an IC50 of 2000 nM.
Cn1cnc2c(NCCCCCCO)nc(Cl)nc21 showed an IC50 greater than 5000 nM.
In the case of C=CCN(CC=C)c1nc(NCc2ccc(OC)cc2)c2ncn(C(C)C)c2n1, the IC50 is reported as greater than 5000 nM.
For CCCn1cnc2c(NCCCCCCO)nc(Cl)nc21, the IC50 was greater than 5000 nM.
For Cn1cnc2c(NC3CCCC3)nc(Cl)nc21, the IC50 was greater than 5000 nM.
COc1ccc(CNc2nc(N(CCO)CCO)nc3c2ncn3C2CCCC2)cc1 showed an IC50 of 2000 nM.
CC(C)n1cnc2c(Nc3ccc(Br)cc3)nc(Nc3ccc(Br)cc3)nc21 gave an IC50 of 5000 nM.
With Cn1cnc2c(NCc3cccnc3)nc(Cl)nc21 the IC50 was greater than 5000 nM.
With COc1ccc(CNc2nc(NC3CCCCC3O)nc3c2ncn3C(C)C)cc1 (configuration not stated) the IC50 was 1000 nM.
In the case of CC(C)n1cnc2c(Nc3nc4ccccc4s3)nc(Cl)nc21, the IC50 is reported as greater than 5000 nM.
CC(O)Nc1nc(NCc2ccc(-c3ccccc3)cc2)c2ncn(C(C)C)c2n1 (configuration not stated) showed an IC50 of 3000 nM.
ClCCCCNc1[nH]c(Cl)nc2ncnc1-2 showed an IC50 greater than 5000 nM.
For COc1ccc(CNc2nc(N(C)CC(O)c3ccc(O)c(O)c3)nc3c2ncn3C(C)C)cc1 (configuration not stated), the IC50 was 3000 nM.
Cn1cnc2c(NCc3ccncc3)nc(Cl)nc21 was tested, and the IC50 was greater than 5000 nM.
COc1ccc(CNc2nc(NC(C)(O)CO)nc3c2ncn3C(C)C)cc1 (configuration not stated) showed an IC50 of 500 nM.
Molecule CC(C)n1cnc2c(NCc3ccc(-c4ccccc4)cc3)nc(N(CCO)CCO)nc21 has an IC50 of 1000 nM.
In the case of COc1ccc(CNc2nc(NC(O)CN)nc3c2ncn3C(C)C)cc1 (configuration not stated), the IC50 is reported as 1000 nM.
With CC(C)n1cnc2c(NCCCc3ccccc3)nc(N(CCO)CCO)nc21 the IC50 was greater than 5000 nM.
COc1ccc(CNc2nc(NCCO)nc3c2ncn3C)cc1 was tested, and the IC50 was 2500 nM.
In the case of Clc1nc(NCc2ccccc2)c2[nH]cnc2n1, the IC50 is reported as greater than 5000 nM.
Cn1cnc2c(NC(C)(C)CO)nc(Cl)nc21 was tested, and the IC50 was greater than 5000 nM.
COc1ccc(CNc2nc(Cl)nc3c2ncn3Cc2ccc(-c3ccccc3)cc2)cc1 showed an IC50 greater than 5000 nM.
With COc1ccc(CNc2nc(NCCc3c[nH]c4ccccc34)nc3c2ncn3C(C)C)cc1 the IC50 was 2000 nM.
Molecule Cn1cnc2c(Nc3nc4ccccc4s3)nc(Cl)nc21 has an IC50 greater than 5000 nM.
With CC(C)n1cnc2c(NCc3ccc(-c4cccs4)cc3)nc(N(CCO)CCO)nc21 the IC50 was 600 nM.
In the case of CC(C)n1cnc2c(Nc3cnc4ccccc4c3)nc(N(CCO)CCO)nc21, the IC50 is reported as 2000 nM.
Work on COCCNc1nc(Cl)nc2c1ncn2C yielded an IC50 greater than 5000 nM.
With COc1ccc(CNc2nc(N(Cc3cccnc3)CC(C)C#N)nc3c2ncn3C(C)C)cc1 (configuration not stated) the IC50 was 1000 nM.
Molecule CC(C)n1cnc2c(Nc3ccccc3)nc(N(CCO)CCO)nc21 has an IC50 of 2000 nM.
Work on CCCCc1ccc(CNc2nc(N(CCO)CCO)nc3c2ncn3C(C)C)cc1 yielded an IC50 of 2000 nM.
Work on COc1ccc(CNc2nc(N3CCCCC3CO)nc3c2ncn3C(C)C)cc1 (configuration not stated) yielded an IC50 of 4000 nM.
In the case of CC(C)n1cnc2c(NCc3ccc(-c4ccccc4)cc3)nc(NCC(O)CO)nc21 (configuration not stated), the IC50 is reported as 600 nM.
For CC(C)n1cnc2c(NCc3ccc(Br)cc3)nc(N(CCO)CCO)nc21, the IC50 was 2000 nM.
With COc1ccc(CNc2nc(N(CCO)CCO)nc3c2ncn3Cc2ccc([N+](=O)[O-])cc2)cc1 the IC50 was 2000 nM.
With CC(C)n1cnc2c(Nc3ccc(-c4ccccc4)cc3)nc(N(CCO)CCO)nc21 the IC50 was 600 nM.
